In US10548894B2, “Combination therapy” (Array BioPharma Inc., priority 2013, dated 2020):
pIC50: −log10 of the molar value. Values belong to the compound of their own block, whether it stands above or below them.

Key:
[1] = test system: A-375 cells expressing mutant MEK1P124L; experiment: ATP-based CTG (Cell Titer Glo) cell viability assay, 72 h; settings: Homo sapiens, A-375 MEK1P124L, single agent
Experimental: (§1) Compound stocks are prepared in DMSO at a final concentration of 10 mM. Working stocks are serially diluted in the appropriate cell culture medium in 3-fold increments to achieve final assay concentrations ranging from 2.7 μM to 1.2 nM.
(§2) A-375 and WM-266-4 cells were purchased from American Type Culture Collection (ATCC). The A-375 cells were cultured in DMEM medium (ATCC) and the WM-266-4 cells were cultured in EMEM medium (ATCC) both supplemented with 10% fetal bovine serum (Gibco) and incubated at 37° C./5% CO2. The cell lines engineered to express commonly occurring alleles indicative of resistance were acquired from Novartis-Emeryville. These resistant models include, A-375 cells expressing mutant MEK1P124L, truncated p61-BRAFV600E, or mutant NRASQ61K, and WM-266-4 cells expressing mutant MEK1C121S, truncated p61-BRAFV600E, or mutant NRASQ61K. These cells were cultured in the appropriate parental medium with selection marker G418 and in the presence of 5 uM LFE158 (MEK mutants) or LIH720 (truncated p61-BRAFV600E).
(§3) For screening, cells were seeded in 80 ul of medium in 384-well plates (Thermo Scientific, cat#4332) at 500 (A-375) or 750 (WM-266-4) cell densities per well using a MultiDrop Combi (Thermo-Fisher) with an 8-channel standard cassette. To promote an even distribution of cells across the entire well, cells were briefly centrifuged at 1000 RPM and incubated at room temperature 30 minutes. All plates were incubated at 37° C., 5% CO2 for 24 h prior to compound addition. Compound stock was freshly prepared in the appropriate culture medium, and added using a PAA robot equipped with a 200n1 pin tool. In a minimum of three replicate wells, single agent and combination effects after 72 hours, were assessed by both quantification of cellular ATP levels via Cell Titer Glo (Promega) according to the manufacturer's protocol and by microscopy imaging. For imaging, cells were fixed to the plates and permeabilized with a solution of 10% PFA, 0.3% TX-100 in PBS via a WellMate dispenser with controlled dispensing speeds. Cell nuclei were stained with Hoechst 33342 (H3570, Invitrogen), and all necessary washing steps were performed by a BioTek washer.
(§4) Data comprised triplicate measurements for each treatment (compound) condition, 42 replicates of DMSO-treated wells, and duplicates of Staurosporin-treated wells. The data was normalized to the median of the DMSO measurements and summarized by calculating the median of the triplicates. Data was imported into Chalice to calculate compound synergies.

[2] = test system: A-375 cells expressing mutant NRASQ61K; experiment: as above; settings: Homo sapiens, A-375 NRASQ61K, single agent
Experimental: as §1, §2, §3, §4

A-375 cells [3] = experiment: as above; settings: Homo sapiens, A-375 parent, single agent
Experimental: as §1, §2, §3, §4

[4] = test system: WM-266-4 cells expressing mutant MEK1C121S; experiment: as above; settings: Homo sapiens, WM-266-4 MEK1C121S, single agent
Experimental: as §1, §2, §3, §4

WM-266-4 cells [5] = experiment: as above; settings: Homo sapiens, WM-266-4 parent, single agent
Experimental: as §1, §2, §3, §4

[6] = test system: A-375 cells expressing mutant MEK1P124L; experiment: Microscopy imaging assay (viable nuclei count), 72 h; format: cell-based; settings: Homo sapiens, A-375 MEK1P124L, single agent
Experimental: as §1, §2, §3
(§5) An automated image analysis pipeline was established using custom-made scripts in the open-source, statistical programming language R, and functions of the BioConductor package EBImage. The goal was to quantify the number of viable nuclei (cells) per well as an approximation for cell viability. The pipeline was comprised of seven steps: (I.) smoothing of the image to reduce the number of intensity peaks, (II.) application of a thresholding function to separate the foreground (signal) from the background (noise), (III.) identification of local maxima in the foreground that serve as seeds for the nuclei, (IV.) filtering of local maxima in close proximity, (V.) propagation of the nuclei from remaining local maxima, (VI.) and extraction of object features from the propagated nuclei (numbers of nuclei, size features and intensity features). As a last step (VII.), to exclude debris (e.g. fragmented nuclei) from counting, objects identified in DMSO- and Staurosporin-treated wells were used to obtain feature distributions for viable and fragmented nuclei, respectively. These were used to set cut-offs differentiating between viable and fragmented nuclei. The number of fragmented nuclei was subtracted from the total number of identified objects and the result was reported as final count for that well.
as §4

[7] = test system: A-375 cells expressing mutant NRASQ61K; experiment: as above; format: cell-based; settings: Homo sapiens, A-375 NRASQ61K, single agent
Experimental: as §1, §2, §3, §5, §4

A-375 cells [8] = experiment: as above; format: cell-based; settings: Homo sapiens, A-375 parent, single agent
Experimental: as §1, §2, §3, §5, §4

[9] = test system: WM-266-4 cells expressing mutant MEK1C121S; experiment: as above; format: cell-based; settings: Homo sapiens, WM-266-4 MEK1C121S, single agent
Experimental: as §1, §2, §3, §5, §4

WM-266-4 cells [10] = experiment: as above; format: cell-based; settings: Homo sapiens, WM-266-4 parent, single agent
Experimental: as §1, §2, §3, §5, §4

[11] = Clinical dose finding and tolerability (RP2D/MTD) in patients; format: in vivo; settings: for MTD: QD
Text: The selection of the starting dose follows the ICH S9 guidelines for choosing a starting a dose for a first-in-human trial conducted in patients with cancer, and is shown in Table 6-2.
Table 3 describes the starting doses and the provisional dose levels of study treatments for the combinations that may be evaluated during this trial. Additional dose levels not currently specified may be enrolled and additional patients may be enrolled at a dose level already tested if such changes are deemed necessary to provide optimal safety and tolerability, pharmacokinetic, and pharmacodynamic data.

[12] = test system: HMEX1906 primary melanoma model (HMEX1906-R5); experiment: Efficacy in HMEX1906-R5 primary melanoma model resistant to Compound of Formula (I); format: in vivo; settings: PO; Compound C 250 mg/kg qd×21; Compound of Formula (I) 5 mg/kg bid×21
Experimental: Objective: To evaluate the efficacy of the combination of the Compound of Formula (I) and the CDK 4 inhibitor Compound C in the HMEX1906 primary melanoma model that is grown in the presence of and is resistant to 5 mg/kg the Compound of Formula (I) (HMEX1906-R5)
Drug formulation: Compound C is formulated in 0.5% MC/0.5% Tween80 and the Compound of Formula (I) is formulated in 20% PEG300/3% ETPGS.
Tumors are chopped/minced into cell line like suspension (tumors homogenized). 7 mL of matrigel added and 1.5 mL of HBSS. Suspension warmed in palm until Matrigel is thick and implanted with a 18G needle s.c right flank of female nude mice.
The mice were assigned to the following groups at 18 days post implant with an average tumor volume of 266 mm^3 and average body weight of 25 grams.
Groups: 10 mice/group, route PO, dose volume 0.2 mL
Group 1: Vehicle, 0 mg/kg bid×14
Group 2: Compound C, 250 mg/kg qd×21
Group 3: Compound of Formula (I), 5 mg/kg bid×21
Group 4: Compound C 250 mg/kg qd×21+Compound of Formula (I) 5 mg/kg bid×21

COLO 741 = experiment: xCELLigence real-time impedance growth assay; format: cell-based; settings: COLO 741, absence of FGF2; Formula (I) 500 nM, Compound H 1 uM
Experimental: (§6) Shown is the growth in real time of the (Top A) COLO 741 and (Bottom B) SK-MEL-5 cell lines as measured using the xCELLigence impedance-based cell analyzer as discussed in Example 5. Where indicated FGF2 and Compound H were supplemented to the media at concentrations of 100 ng/ml, and 1 uM, respectively. The Compound of Formula (I) was used at 500 nM in (A) and 100 nM (B).
(§7) For CellTiter-Glo™ assays, cells were dispensed into tissue culture treated 96-well plates (Costar, catalog number 3904) with a final volume of 80 μL of medium and at density of 3000 cells per well. 12 to 24 hrs after plating, 20 μL of each compound dilution series were transferred to plates containing the cells, resulting in compound concentration ranges of 2700 nM to 3.7 nM by 3-fold dilutions and a final DMSO concentration of 0.16%. The total volume in each well was […]. Plates were incubated for 72 hrs and the effects of compounds on cell proliferation was determined using the CellTiter-Glo™ Luminescent Cell Viability Assay (CTG, Promega) and a Victor™ X4 plate reader (Perkin Elmer). For real-time growth assays cells were seeded into xCELLigence E-plates (Roche catalogue number 05232368001) at a density of 4000 cells per well in a total of 90 μl of media and 24 hrs after plating, 11 μl of media with or without compound was added to the wells. 2-4 replicate wells were plated for all cell lines and treatment groups with the exception of LGX818+FGF2 treated COLO 741 cells (N=1). Where indicated final concentrations of compounds and growth factor were 1 uM for Compound H, 100 ng/ml for FGF2, and either 100 nM (SK-MEL-5) or 500 nM (COLO 741) for the Compound of Formula (I). Cells were continuously monitored every two hours for seven days with the xCELLigence real-time impedance based cell analyzer. Impedance was measured using the electrodes on the E-plates, with increasing surface area coverage of cells creating greater electrode impedance. […] In all cases cell index values were normalized to a timepoint immediately following the addition of compound.
(§8) To determine whether rescue of BRAFV600E melanoma cell lines by FGF2 was dependent on FGFR signaling, we examined whether the selective FGFR inhibitor Compound H could prevent FGF2-mediated rescue. Two cell lines which were rescued to varying degrees by FGF2 (COLO 741, and SK-MEL-5, Table 8-1) were cultured in media containing the Compound of Formula (I) and FGF2 either in the presence or absence of Compound H and growth measured in real time.

SK-MEL-5 = experiment: xCELLigence real-time impedance growth assay; format: cell-based; settings: SK-MEL-5, absence of FGF2; Formula (I) 100 nM, Compound H 1 uM
Experimental: as §6, §7, §8

[13] = test system: MAPK and PIK3C signaling in COLO 741 cells; experiment: Western analysis of phosphorylated MEK1/2, ERK1/2 and AKT; format: cell-based; settings: COLO 741, 2 and 24 hours, no FGF2; Formula (I) 100 nM, Compound H 1.0 uM
Experimental: (§9) FIG. 4—The effect on signaling of combining the Compound of Formula (I) with the FGFR inhibitor Compound H and the FGFR ligand FGF2 in two BRAFV600E mutant melanoma-derived cell lines in vitro. Shown is western analysis of both phosphorylated and total AKT, ERK1/2, and MEK1/2 proteins isolated from (A) […] and (B) SK-MEL-5 cells following treatment with the Compound of Formula (I) (100 nM), FGF2 (100 ng/ml), and Compound H (1 uM). Cells were treated for 2 and 24 hours with agents singly and in combination as discussed in Example 5.
(§10) For Western analysis, cells were plated in 6-well (Costar, catalog number 3506) plates at a density of 5×10^5 cells per well in 2.0 ml of complete culture medium. Twelve to 24 hrs after plating, cells were treated with the various compounds, and in all experiments the Compound of Formula (I), Compound H, and FGF2 were used at final concentrations of 100 nM, 1.0 uM, and 100 ng/ml, respectively. Cells were harvested 2, and 24 hrs following the addition of compound in freshly prepared cell lysis buffer (Cell Signaling Technology Catalog number 9803); supplemented with both phosphatase (PhosStop, Roche Catalog number 04906845001) and protease inhibitors (Roche, catalog number 11697498001). Proteins from cell lysates were separated by electrophoresis though a NuPAGE 4-12% Bis-Tis midi gel (Novex, catalog number WG1402BX10), transferred to nitrocellulose membranes, which were subsequently incubated with antibodies from Cell Signaling Technology (Danvers, Mass., USA) recognizing p-AKT (S473, Catalog number 4058), total AKT (Catalog number 2920), p-ERK1/2 (T202/Y204, catalog number 9101), total ERK1/2 (catalog number 9107), p-MEK1/2 (S217/221, catalog number 9121) and β-actin (Ambion, catalog number AM4302). Western blots were visualized following incubation with IRDye 680RD Goat anti-Rabbit IgG (Li-Cor, Catalog number 926-68071) and IRDye 800 CW Goat anti-Mouse IgG (Li-Cor, Catalog number 926-32210) and scanning with an Odyssey Infrared Imager System (Li-Cor, Lincoln, Nebr., USA).
(§11) To investigate whether either restored MAPK or activated PIK3C signaling might underlie FGF2-mediated rescue the effects of FGF2 on MAPK and PIK3C signaling were examined via western-blot analysis of phosphorylated MEK1/2 (MAP2K1/2), ERK1/2 (MAPK1/2) and AKT1/2/3.

[14] = test system: MAPK and PIK3C signaling in SK-MEL-5 cells; experiment: as above; format: cell-based; settings: SK-MEL-5, 2 and 24 hours, no FGF2; Formula (I) 100 nM, Compound H 1.0 uM
Experimental: as §9, §10, §11

pIC50 [1]: < 5.57 | pIC50 [2]: 6.69 | pIC50 (A-375 cells [3]): 7.29 | pIC50 [6]: < 5.57 | pIC50 [7]: 6.82 | pIC50 (A-375 cells [8]): 7.24
Structure (SMILES): Cn1cnc2c(F)c(Nc3ccc(Br)cc3F)c(C(=O)NOCCO)cc21 [Compound B]
pIC50 [4]: 6.09 | pIC50 (WM-266-4 cells [5]): 7.30 | pIC50 [9]: 5.92 | pIC50 (WM-266-4 cells [10]): 7.11 | RP2D ([11]; BID, in combination with B-Raf inhibitor of Formula (I) 600 mg): 45 mg

Structure (SMILES): CN(C)C(=O)c1cc2cnc(Nc3ccc(N4CCNCC4)cn3)nc2n1C1CCCC1 [Compound C]
Mean change of body weight [12]: 5.3 ± 1.4 % ± SEM | Mean change of tumor volume [12]: 86 ± 26 mm3 ± SEM | Mean change of tumor volume vs control (T/C) [12]: 4% | Survival (Survivors/Total) [12]: 10/10 | maximum tolerated dose (MTD) ([11]; currently tested at the 900 mg QD dose level): has not been achieved

Structure (SMILES): Nc1cc(C(F)(F)F)c(-c2cc(N3CCOCC3)nc(N3CCOCC3)n2)cn1 [Compound F, 5-(2,6-di-morpholin-4-yl-pyrimidin-4-yl)-4-trifluoromethyl-pyridin-2-ylamine]
MTD [11]: 100 mg

Structure (SMILES): CCN1CCN(c2ccc(Nc3cc(N(C)C(=O)Nc4c(Cl)c(OC)cc(OC)c4Cl)ncn3)cc2)CC1 [Compound H]
growth in real time (cell index) (COLO 741): did not affect the proliferation | growth in real time (cell index) (SK-MEL-5): did not affect the proliferation | MAPK signaling (phosphorylated MEK and ERK levels) [13]: neither FGF2 nor Compound H when added as single agents affected signaling | MAPK signaling (phosphorylated MEK and ERK levels) [14]: neither FGF2 nor Compound H when added as single agents affected signaling | MTD [11]: 125 mg
